These results are taken from patent publication US9181239B2, “Pyridopyrimidinone inhibitors of kinases” (AbbVie Inc., priority 2011, dated 2015).

The target in this experiment is T1, Wee1 kinase (Homo sapiens, UniProt P30291).
T1 construct: purchased Carnabio 05-177
T1 sequence (P30291 whole entry): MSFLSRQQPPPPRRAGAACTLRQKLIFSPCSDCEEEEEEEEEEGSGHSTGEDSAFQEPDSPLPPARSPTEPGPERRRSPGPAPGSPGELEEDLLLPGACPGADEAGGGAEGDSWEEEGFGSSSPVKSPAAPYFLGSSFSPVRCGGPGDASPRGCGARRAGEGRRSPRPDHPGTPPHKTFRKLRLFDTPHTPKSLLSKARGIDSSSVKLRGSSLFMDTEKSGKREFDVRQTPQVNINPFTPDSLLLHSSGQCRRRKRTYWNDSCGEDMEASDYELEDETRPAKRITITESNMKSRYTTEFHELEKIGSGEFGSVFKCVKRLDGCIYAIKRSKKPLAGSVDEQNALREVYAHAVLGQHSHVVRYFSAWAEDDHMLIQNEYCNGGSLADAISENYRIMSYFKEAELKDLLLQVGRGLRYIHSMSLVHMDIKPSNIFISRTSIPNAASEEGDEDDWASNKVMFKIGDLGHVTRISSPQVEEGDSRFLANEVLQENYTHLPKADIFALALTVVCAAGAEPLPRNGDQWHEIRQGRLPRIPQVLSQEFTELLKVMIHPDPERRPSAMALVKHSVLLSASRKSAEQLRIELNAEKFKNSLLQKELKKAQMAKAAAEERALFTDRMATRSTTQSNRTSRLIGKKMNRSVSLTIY
As to the kind of experiment: Wee1 time-resolved fluorescence equilibrium binding assay (probe displacement). The settings on record: GST-tagged-Wee1 kinase 2 nM, fluorescent probe 300 nM, 1 hour incubation; read-out: Wee-1 binding (Ki nM). As to the method:
Wee1 kinase was assayed using a time-resolved fluorescence equilibrium binding assay monitoring displacement of a rapidly reversible Oregon Green-labeled ATP-competitive kinase probe (N-(2-(2-(2-(4-(4-(5-chloro-4-(2-(1-hydroxycyclobutyl)thiazol-5-yl)-1H-pyrrolo[2,3-b]pyridin-2-yl)phenyl)piperazin-1-yl)ethoxy)ethoxy)ethyl)-2′,7′-difluoro-3′,6′-dihydroxy-3-oxo-3H-spiro[isobenzofuran-1,9′-xanthene]-5-carboxamide) by competitive Wee1 inhibitors.
A word on the Ki: it is the dissociation constant of the complex between target and ligand, obtained from inhibition or displacement. In the case of `CN(C)C1Cc2ccc(Nc3ncc4c(=O)c(-c5c(Cl)cccc5Cl)c[nH]c4n3)cc2C1` (stereo not drawn) [Example 41, 6-(2,6-dichlorophenyl)-2-{[2-(dimethylamino)-2,3-dihydro-1H-inden-5-yl]amino}pyrido[2,3-d]pyrimidin-5(8H)-one], the Ki is 0.4 nM.

Consider `CN1Cc2cc(Nc3ncc4c(=O)c(-c5c(Cl)cccc5Cl)c[nH]c4n3)ccc2C(C)(C)C1` [Example 42, 6-(2,6-dichlorophenyl)-2-[(2,4,4-trimethyl-1,2,3,4-tetrahydroisoquinolin-7-yl)amino]pyrido[2,3-d]pyrimidin-5(8H)-one], for which the Ki was 0.2 nM.

Consider `O=c1c(-c2c(Cl)cccc2Cl)c[nH]c2nc(Nc3ccc4c(c3)CNCC43CC3)ncc12` [Example 43, 6-(2,6-dichlorophenyl)-2-(2′,3′-dihydro-1′H-spiro[cyclopropane-1,4′-isoquinolin]-7′-ylamino)pyrido[2,3-d]pyrimidin-5(8H)-one], for which the Ki stood at 0.3 nM.

Turning to `CN(C)C1CCN(c2ccc(Nc3ncc4c(=O)c(-c5c(Cl)cccc5Cl)cn(C)c4n3)cc2)CC1` [Example 44, 6-(2,6-dichlorophenyl)-2-({4-[4-(dimethylamino)piperidin-1-yl]phenyl}amino)-8-methylpyrido[2,3-d]pyrimidin-5(8H)-one], the Ki was found to be 0.5 nM.

Turning to `Cn1cc(-c2c(Cl)cccc2Cl)c(=O)c2cnc(N)nc21` [Example 45, 2-amino-6-(2,6-dichlorophenyl)-8-methylpyrido[2,3-d]pyrimidin-5(8H)-one], the Ki is 180 nM.

Regarding `Cn1cc(-c2c(Cl)cccc2Cl)c(=O)c2cnc(Nc3ccc4c(c3)CCNC4)nc21` [Example 46, 6-(2,6-dichlorophenyl)-8-methyl-2-(1,2,3,4-tetrahydroisoquinolin-6-ylamino)pyrido[2,3-d]pyrimidin-5(8H)-one], the Ki turned out to be 1.1 nM.

Regarding `Cn1cc(-c2c(Cl)cccc2Cl)c(=O)c2cnc(Nc3ccc4c(c3)CNCC4(C)C)nc21` [Example 47, 6-(2,6-dichlorophenyl)-2-[(4,4-dimethyl-1,2,3,4-tetrahydroisoquinolin-7-yl)amino]-8-methylpyrido[2,3-d]pyrimidin-5(8H)-one], the Ki worked out at 0.6 nM.

Take `Cn1cc(-c2c(Cl)cccc2Cl)c(=O)c2cnc(Nc3ccc(N4CCOCC4)cc3)nc21` [Example 48, 6-(2,6-dichlorophenyl)-8-methyl-2-{[4-(morpholin-4-yl)phenyl]amino}pyrido[2,3-d]pyrimidin-5(8H)-one]: the Ki is 1.7 nM.

On to `Cn1cc(-c2c(Cl)cccc2Cl)c(=O)c2cnc(Nc3ccc4c(c3)CNC4)nc21` [Example 49, 6-(2,6-dichlorophenyl)-2-(2,3-dihydro-1H-isoindol-5-ylamino)-8-methylpyrido[2,3-d]pyrimidin-5(8H)-one], for which the Ki is 0.8 nM.

Consider `CN1CCC(c2ccc(Nc3ncc4c(=O)c(-c5c(Cl)cccc5Cl)cn(C)c4n3)cc2)CC1` [Example 50, 6-(2,6-dichlorophenyl)-8-methyl-2-{[4-(1-methylpiperidin-4-yl)phenyl]amino}pyrido[2,3-d]pyrimidin-5(8H)-one], for which the Ki amounted to 0.9 nM.

For `Cn1cc(-c2c(Cl)cccc2Cl)c(=O)c2cnc(Nc3ccc4c(c3)CNCC4)nc21` [Example 51, 6-(2,6-dichlorophenyl)-8-methyl-2-(1,2,3,4-tetrahydroisoquinolin-7-ylamino)pyrido[2,3-d]pyrimidin-5(8H)-one], the Ki stood at 0.4 nM.

`CN1CCc2ccc(Nc3ncc4c(=O)c(-c5c(Cl)cccc5Cl)cn(C)c4n3)cc2C1` [Example 52, 6-(2,6-dichlorophenyl)-8-methyl-2-[(2-methyl-1,2,3,4-tetrahydroisoquinolin-7-yl)amino]pyrido[2,3-d]pyrimidin-5(8H)-one]: the Ki was 0.5 nM.

Consider `CN1CCc2cc(Nc3ncc4c(=O)c(-c5c(Cl)cccc5Cl)cn(C)c4n3)ccc2C1` [Example 54, 6-(2,6-dichlorophenyl)-8-methyl-2-[(2-methyl-1,2,3,4-tetrahydroisoquinolin-6-yl)amino]pyrido[2,3-d]pyrimidin-5(8H)-one], for which the Ki was determined as 0.3 nM.

Consider `Cn1cc(-c2c(Cl)cccc2Cl)c(=O)c2cnc(Nc3ccc4c(c3)CC(N3CCCC3)C4)nc21` (stereo not drawn) [Example 55, 6-(2,6-dichlorophenyl)-8-methyl-2-{[2-(pyrrolidin-1-yl)-2,3-dihydro-1H-inden-5-yl]amino}pyrido[2,3-d]pyrimidin-5(8H)-one], for which the Ki worked out at 0.4 nM.

As for `Cn1cc(-c2c(Cl)cccc2Cl)c(=O)c2cnc(Nc3ccc4c(c3)C(=O)NC4=O)nc21` [Example 56, 5-{[6-(2,6-dichlorophenyl)-8-methyl-5-oxo-5,8-dihydropyrido[2,3-d]pyrimidin-2-yl]amino}-1H-isoindole-1,3(2H)-dione], the Ki is 27 nM.

Take `CN1CCN(C2Cc3ccc(Nc4ncc5c(=O)c(-c6c(Cl)cccc6Cl)cn(C)c5n4)cc3C2)CC1` (stereo not drawn) [Example 57, 6-(2,6-dichlorophenyl)-8-methyl-2-{[2-(4-methylpiperazin-1-yl)-2,3-dihydro-1H-inden-5-yl]amino}pyrido[2,3-d]pyrimidin-5(8H)-one]: the Ki turned out to be 0.9 nM.

With `Cn1cc(-c2c(Cl)cccc2Cl)c(=O)c2cnc(Nc3cc4c(s3)CCNC4)nc21` [Example 58, 6-(2,6-dichlorophenyl)-8-methyl-2-(4,5,6,7-tetrahydrothieno[3,2-c]pyridin-2-ylamino)pyrido[2,3-d]pyrimidin-5(8H)-one], the Ki turned out to be 0.4 nM.

Take `CN1CCN(c2ncc(Nc3ncc4c(=O)c(-c5c(Cl)cccc5Cl)cn(C)c4n3)cn2)CC1` [Example 59, 6-(2,6-dichlorophenyl)-8-methyl-2-{[2-(4-methylpiperazin-1-yl)pyrimidin-5-yl]amino}pyrido[2,3-d]pyrimidin-5(8H)-one]: the Ki was 18 nM.

With `CN1Cc2cc(Nc3ncc4c(=O)c(-c5c(Cl)cccc5Cl)cn(C)c4n3)ccc2C1(C)C` [Example 60, 6-(2,6-dichlorophenyl)-8-methyl-2-[(1,1,2-trimethyl-2,3-dihydro-1H-isoindol-5-yl)amino]pyrido[2,3-d]pyrimidin-5(8H)-one], the Ki came out at 0.2 nM.

Consider `CN1CCC(Nc2ccc(Nc3ncc4c(=O)c(-c5c(Cl)cccc5Cl)cn(C)c4n3)cc2)CC1` [Example 61, 6-(2,6-dichlorophenyl)-8-methyl-2-({4-[(1-methylpiperidin-4-yl)amino]phenyl}amino)pyrido[2,3-d]pyrimidin-5(8H)-one], for which the Ki stood at 0.6 nM.

`CN(C)C1CCN(c2ncc(Nc3ncc4c(=O)c(-c5c(Cl)cccc5Cl)cn(C)c4n3)cn2)CC1` [Example 62, 6-(2,6-dichlorophenyl)-2-({2-[4-(dimethylamino)piperidin-1-yl]pyrimidin-5-yl}amino)-8-methylpyrido[2,3-d]pyrimidin-5(8H)-one]: the Ki is 3 nM.

For `Cn1cc(-c2c(Cl)cccc2Cl)c(=O)c2cnc(Nc3ccc(N[C@@H]4CCNC4)cc3)nc21` [Example 63, 6-(2,6-dichlorophenyl)-8-methyl-2-({4-[(3R)-pyrrolidin-3-ylamino]phenyl}amino)pyrido[2,3-d]pyrimidin-5(8H)-one], the Ki worked out at 0.7 nM.

`Cn1cc(-c2c(Cl)cccc2Cl)c(=O)c2cnc(Nc3ccc(N[C@H]4CCNC4)cc3)nc21` [Example 64, 6-(2,6-dichlorophenyl)-8-methyl-2-({4-[(3S)-pyrrolidin-3-ylamino]phenyl}amino)pyrido[2,3-d]pyrimidin-5(8H)-one]: the Ki was determined as 0.4 nM.

Consider `Cn1cc(-c2c(Cl)cccc2Cl)c(=O)c2cnc(Nc3ccc4c(c3)CNC4(C)C)nc21` [Example 65, 6-(2,6-dichlorophenyl)-2-[(1,1-dimethyl-2,3-dihydro-1H-isoindol-5-yl)amino]-8-methylpyrido[2,3-d]pyrimidin-5(8H)-one], for which the Ki was found to be 0.3 nM.

Regarding `Cn1cc(-c2c(Cl)cccc2Cl)c(=O)c2cnc(Nc3ccc(NC4CCNCC4)cc3)nc21` [Example 66, 6-(2,6-dichlorophenyl)-8-methyl-2-{[4-(piperidin-4-ylamino)phenyl]amino}pyrido[2,3-d]pyrimidin-5(8H)-one], the Ki turned out to be 0.4 nM.

With `CN1CCC(Nc2ccc(Nc3ncc4c(=O)c(-c5c(Cl)cccc5Cl)cn(C)c4n3)cc2)C1` (stereo not drawn) [Example 67, 6-(2,6-dichlorophenyl)-8-methyl-2-({4-[(1-methylpyrrolidin-3-yl)amino]phenyl}amino)pyrido[2,3-d]pyrimidin-5(8H)-one], the Ki came to 0.5 nM.

Regarding `CN1CCC(Oc2ccc(Nc3ncc4c(=O)c(-c5c(Cl)cccc5Cl)cn(C)c4n3)cc2)CC1` [Example 68, 6-(2,6-dichlorophenyl)-8-methyl-2-({4-[(1-methylpiperidin-4-yl)oxy]phenyl}amino)pyrido[2,3-d]pyrimidin-5(8H)-one], the inhibitory constant (Ki) worked out at 0.4 nM.

As for `CN1CCC(Nc2ccc(Nc3ncc4c(=O)c(-c5c(F)cccc5Cl)cn(C)c4n3)cc2)CC1` [Example 69, 6-(2-chloro-6-fluorophenyl)-8-methyl-2-({4-[(1-methylpiperidin-4-yl)amino]phenyl}amino)pyrido[2,3-d]pyrimidin-5(8H)-one], the Ki came to 3 nM.

For the compound `CN1Cc2cc(Nc3ncc4c(=O)c(-c5c(F)cccc5Cl)cn(C)c4n3)ccc2C1(C)C` [Example 70, 6-(2-chloro-6-fluorophenyl)-8-methyl-2-[(1,1,2-trimethyl-2,3-dihydro-1H-isoindol-5-yl)amino]pyrido[2,3-d]pyrimidin-5(8H)-one], the Ki worked out at 0.2 nM.

Consider `COC(=O)c1cc(Nc2ncc3c(=O)c(-c4c(Cl)cccc4Cl)cn(C)c3n2)ccc1N1CCN(C)CC1` [Example 71, methyl 5-{[6-(2,6-dichlorophenyl)-8-methyl-5-oxo-5,8-dihydropyrido[2,3-d]pyrimidin-2-yl]amino}-2-(4-methylpiperazin-1-yl)benzoate], for which the Ki stood at 0.7 nM.
